Reference: paper PMC9866588, “Novel 7-Chloro-4-aminoquinoline-benzimidazole Hybrids as Inhibitors of Cancer Cells Growth: Synthesis, Antiproliferative Activity, in Silico ADME Predictions, and Docking” (Molecules, 2023)
Counter-ions that a name gives are not always drawn. Like-named read-outs stand apart in the source and are kept apart here.

How the values were obtained:
[1] = system: Raji (Burkitt lymphoma) cells; test: MTT antiproliferative assay, Raji; assay type: cell-based, human; conditions: Homo sapiens, Raji; 72 h, MTT, mean ± SD of three independent experiments
Experimental: (§1) The growth inhibition activity was assessed according to the slightly modified procedure performed at the National Cancer Institute, Developmental Therapeutics Program.
(§2) The examined compounds were dissolved in DMSO (1 × 10^−2 M). The experiments were carried out on seven human tumor cell lines and a normal cell line. The following cell lines were used: HeLa (human cervical adenocarcinoma; purchased from ATCC), CaCo-2 (human colorectal adenocarcinoma), MCF-7 (human breast adenocarcinoma), CCRF-CEM (human acute lymphoblastic leukemia), Hut78 (T-cell lymphoma), THP-1 (acute monocytic leukemia), Burkitt lymphoma (Raji), and MDCK1 (Madine–Darby canine kidney). The MDCK1 cells were used between 24 and 26 passages.
(§3) The adherent cells were cultured in Dulbecco’s modified Eagle medium—DMEM (Gibco, Termo Fisher Scientific Inc., Leicestershire, England, UK), supplemented with 10% heat-inactivated fetal bovine serum (FBS, Gibco, Termo Fisher Scientific Inc., Leicestershire, England, UK), 2 mM glutamine, and 100U/0.1mg penicillin/streptomycin. The cells in suspension were cultured in RPMI 1640 (Gibco, Termo Fisher Scientific Inc., Leicestershire, England, UK) medium, supplemented with 10% FBS (Gibco, Termo Fisher Scientific Inc., Leicestershire, England, UK), 2 mM glutamine, 1 mM sodium pyruvate, and 10 mM HEPES. The cells were grown in a humidified atmosphere under the conditions of 37 °C/5% of CO2 gas in the CO2 incubator (IGO 150 CELLlife^TM, JOUAN, Thermo Fisher Scientific, Waltham, MA, USA).
(§4) The adherent cells (HeLa, CaCo-2, MCF-7, and MDCK-1) were plated in 96-well flat bottom plates (Greiner, Frickenhausen, Austria) at a concentration of 2 × 10^4 cells/mL. The suspension cells (Raji, THP-1, CCRF-CEM and Hut78) were plated in 96-well microtiter plates (Sarstead, Newton, NC, USA) at a concentration of 1 × 10^5 cells/mL. Twenty-four hours later, the cells were treated with test agents in […] and incubated for a further 72 h. The working dilutions were freshly prepared on the day of testing. The solvent was also tested for eventual inhibitory activity by adjusting its concentration to be the same as in the working concentrations. After 72 h of incubation, the cell growth rate was evaluated by performing the MTT assay, which detects dehydrogenase activity in viable cells. For this purpose, upon completion of the incubation period, the growth medium was discarded and 50 μL of MTT was added to each well at a concentration of 5 mg/mL. After four hours of incubation at 37 °C, the water insoluble MTT-formazan crystals were dissolved in 150 μL of dimethyl-sulfoxide (DMSO) for the adherent cells and in 10% SDS with 0.01 mol/L HCl for the cells grown in suspension. The absorbance (OD, optical density) was measured on a microplate reader (iMark, BIO RAD, Hercules, CA, USA) at 595 nm.
(§5) The percentage of live cells was calculated as follows: % = OD (sample) − OD (background)/OD (control) − OD (background) × 100.
(§6) The optical density (OD) of the background for the adherent cells is the OD of the MTT solution and DMSO; the OD (background) for the suspension cells is the OD of the culture medium with MTT and 10% SDS with 0.01 mol/L HCl; the OD (control) is the OD of the cells grown without the tested compounds.
(§7) The calculation of the GI50 value curves and QC analysis was performed using the Excel tools and GraphPadPrism software (La Jolla, CA, USA), v. 5.03. Briefly, individual concentration effect curves are generated by plotting the logarithm of the concentration of the tested compounds (X) vs. the corresponding percent inhibition values (Y) using the least squares fit. The best-fit GI50 values are calculated using log (inhibitor) versus normalized response—variable slope equation, where Y Ľ 100/(1 ţ 10 ((LogIC50 _ X) × HillSlope)). The QC criteria parameters (Z0, S:B, R2, HillSlope) were checked for every GI50 curve.

[2] = system: CCRF-CEM (human acute lymphoblastic leukemia) cells; test: MTT antiproliferative assay, CCRF-CEM; assay type: cell-based; conditions: Homo sapiens, CCRF-CEM; 72 h, MTT, mean ± SD of three independent experiments
Experimental: as §1, §2, §3, §4, §5, §6, §7

[3] = system: HeLa (human cervical adenocarcinoma) cells; test: MTT antiproliferative assay, HeLa; assay type: cell-based; conditions: 72 h, mean ± SD of three independent experiments
Experimental: as §1, §2, §3, §4, §5, §6, §7

[4] = system: normal (MDCK1) and tumor cell lines; test: MTT antiproliferative assay, ranges stated over several cell lines; assay type: cell-based; conditions: for GI50: MDCK1
Experimental: as §1, §2, §3, §4, §5, §6, §7

[5] = system: CaCo-2 (human colorectal adenocarcinoma) cells; test: MTT antiproliferative assay, CaCo-2; assay type: cell-based; conditions: 72 h, mean ± SD of three independent experiments
Experimental: as §1, §2, §3, §4, §5, §6, §7

[6] = system: MCF-7 (human breast adenocarcinoma) cells; test: MTT antiproliferative assay, MCF-7; assay type: cell-based; conditions: MCF7, 72 h, mean ± SD of three independent experiments
Experimental: as §1, §2, §3, §4, §5, §6, §7

[7] = system: Hut78 (T-cell lymphoma) cells; test: MTT antiproliferative assay, HuT78; assay type: cell-based, human; conditions: Homo sapiens, HuT78; 72 h, MTT, mean ± SD of three independent experiments
Experimental: as §1, §2, §3, §4, §5, §6, §7

[8] = system: MDCK1 (Madine–Darby canine kidney) cells; test: MTT antiproliferative assay, MDCK1; assay type: cell-based; conditions: mean ± SD of three independent experiments
Experimental: as §1, §2, §3, §4, §5, §6, §7

[9] = system: THP-1 (acute monocytic leukemia) cells; test: MTT antiproliferative assay, THP-1; assay type: cell-based, human; conditions: Homo sapiens, THP-1; 72 h, MTT, mean ± SD of three independent experiments; read-out: GI50 THP1
Experimental: as §1, §2, §3, §4, §5, §6, §7

[10] = Canis lupus familiaris, MDCK1, 72 h

Clc1ccc2[nH]c(-c3ccc(N4CCN(c5ccnc6cc(Cl)ccc56)CC4)cc3)nc2c1 [Compound 8e, 7-chloro-4-(4-(4-(5-chloro-1H-benzo[d]imidazol-2-yl)phenyl)piperazin-1-yl)quinoline]
GI50 [1]: 13.4 ± 2.6 µM | GI50 [2]: 41 ± 0.5 µM | GI50 [3]: 100 µM | GI50 ([4]; leukemia and lymphoma cell lines, read-out: GI50 range, leukemia and lymphoma cells): 13.4 to 41 µM | GI50 [5]: > 100 µM | GI50 [6]: 84 ± 7.7 µM | GI50 [7]: 15.6 ± 9.8 µM | GI50 [8, 10]: 2.7 ± 0.3 µM | GI50 [9]: 22.3 ± 7.4 µM

O=C(NCCNc1ccnc2cc(Cl)ccc12)c1ccc(-c2nc3cc(C4=NCCN4)ccc3[nH]2)cc1 [Compound 12c, N-(2-(7-chloroquinolin-4-ylamino)ethyl)-4-(5-(4,5-dihydro-1H-imidazol-2-yl)-1H-benzo[d]imidazol-2-yl)benzamide trihydrochloride]
GI50 [1]: 20.8 ± 1.8 µM | GI50 [2]: 56.3 ± 9 µM | GI50 [3]: 33.2 ± 5.8 µM | GI50 [5]: 52 ± 9.1 µM | GI50 [6]: 100 µM | GI50 [7]: 4.4 ± 1 µM | GI50 [8, 10]: 39.6 ± 2.2 µM | GI50 [9]: > 100 µM

Clc1ccc2c(Nc3cccc(-c4nc5cc(C6=NCCN6)ccc5[nH]4)c3)ccnc2c1 [Compound 5c, 7-chloro-N-(3-(5-(4,5-dihydro-1H-imidazol-2-yl)-1H-benzo[d]imidazol-2-yl)phenyl)quinolin-4-amine trihydrochloride]
GI50 [1]: > 100 µM | GI50 [2]: > 100 µM | GI50 [3]: > 100 µM | GI50 [5]: > 100 µM | GI50 [6]: > 100 µM | GI50 [7]: 66.2 ± 14.6 µM | GI50 [8, 10]: > 100 µM | GI50 [9]: > 100 µM

N=C(N)c1ccc2[nH]c(-c3ccc(C(=O)NCCNc4ccnc5cc(Cl)ccc45)cc3)nc2c1 [Compound 12a, 4-(5-carbamimidoyl-1H-benzo[d]imidazol-2-yl)-N-(2-(7-chloroquinolin-4-ylamino)ethyl)benzamide trihydrochloride]
GI50 [1]: 8.9 ± 3.3 µM | GI50 [2]: 20 ± 6.8 µM | GI50 [3]: 11.1 ± 3.8 µM | GI50 [5]: 24.7 ± 6.2 µM | GI50 [6]: 39.1 ± 5.6 µM | GI50 [7]: 4.1 ± 2 µM | GI50 [8, 10]: 21.6 ± 3.2 µM | GI50 [9]: > 100 µM

CC(C)NC(=N)c1ccc2[nH]c(-c3ccc(C(=O)NCCNc4ccnc5cc(Cl)ccc45)cc3)nc2c1 [Compound 12b, 4-(5-(N-isopropylcarbamimidoyl)-1H-benzo[d]imidazol-2-yl)-N-(2-(7-chloroquinolin-4-ylamino)ethyl)benzamide trihydrochloride]
GI50 [1]: 12.8 ± 3.7 µM | GI50 [2]: 43.3 ± 17.5 µM | GI50 [3]: 100 µM | GI50 [5]: 38.7 ± 12.4 µM | GI50 [6]: 100 µM | GI50 [7]: 5.6 ± 2.7 µM | GI50 [8, 10]: 42.9 ± 5.1 µM | GI50 [9]: 100 µM

CC(C)NC(=N)c1ccc2[nH]c(-c3cccc(Nc4ccnc5cc(Cl)ccc45)c3)nc2c1 [Compound 5b, 2-(3-(7-chloroquinolin-4-ylamino)phenyl)-N-isopropyl-1H-benzo[d]imidazole-5-carboximidamide trihydrochloride]
GI50 [1]: > 100 µM | GI50 [2]: > 100 µM | GI50 [3]: > 100 µM | GI50 [5]: > 100 µM | GI50 [6]: > 100 µM | GI50 [7]: 41.8 ± 8.2 µM | GI50 [8, 10]: > 100 µM | GI50 [9]: > 100 µM

CC(C)NC(=N)c1ccc2[nH]c(-c3ccc(N4CCN(c5ccnc6cc(Cl)ccc56)CC4)cc3)nc2c1 [Compound 8b, 2-(4-(4-(7-chloroquinolin-4-yl)piperazin-1-yl)phenyl)-N-isopropyl-1H-benzo[d]imidazole-5-carboxamidine dihydrochloride]
GI50 [1]: 42.9 ± 8.8 µM | GI50 [2]: 39.6 ± 9.2 µM | GI50 [3]: 21 ± 1.9 µM | GI50 [5]: 100 µM | GI50 [6]: 30.9 ± 2.7 µM | GI50 [7]: 26.2 ± 1.6 µM | GI50 [8, 10]: 58.8 ± 9.8 µM | GI50 [9]: > 100 µM

Clc1ccc2[nH]c(-c3cccc(Nc4ccnc5cc(Cl)ccc45)c3)nc2c1 [Compound 5e, 7-chloro-N-(3-(5-chloro-1H-benzo[d]imidazol-2-yl)phenyl)quinolin-4-amine]
GI50 [1]: 5.4 ± 2 µM | GI50 [2]: 15.6 ± 3.4 µM | GI50 [3]: 11.8 ± 1.2 µM | GI50 ([4]; range over tumor cell lines, read-out: GI50 range, tumor cell lines): 0.4 to 15.6 µM | GI50 / inhibitory potential, normal and tumor cells ([4]; over all tested cell lines): strong antiproliferative activity | GI50 [5]: 1.1 ± 0.1 µM | GI50 [6]: 11.1 ± 1.6 µM | GI50 [7]: 6.7 ± 0.5 µM | GI50 ([8]; 72 h): 11.4 ± 6.2 µM | GI50 [8, 10]: 11.4 to 20.4 µM | GI50 [9]: 2.1 ± 0.9 µM

Clc1ccc2c(N3CCN(c4ccc(-c5nc6cc(C7=NCCN7)ccc6[nH]5)cc4)CC3)ccnc2c1 [Compound 8c, 7-chloro-4-(4-(4-(5-(4,5-dihydro-1H-imidazol-2-yl)-1H-benzo[d]imidazol-2-yl)phenyl)piperazin-1-yl)quinoline dihydrochloride]
GI50 [1]: 43.9 ± 16.2 µM | GI50 [2]: 25.4 ± 11.5 µM | GI50 [3]: 41.8 ± 8.4 µM | GI50 [5]: 100 µM | GI50 [6]: 24.8 ± 2.2 µM | GI50 [7]: 27.6 ± 4.7 µM | GI50 [8, 10]: 30.1 ± 5 µM | GI50 [9]: 71.3 ± 11.4 µM

N=C(N)c1ccc2[nH]c(-c3cccc(Nc4ccnc5cc(Cl)ccc45)c3)nc2c1 [Compound 5a, 2-(3-(7-chloroquinolin-4-ylamino)phenyl)-1H-benzo[d]imidazole-5-carboximidamide trihydrochloride]
GI50 [1]: > 100 µM | GI50 [2]: > 100 µM | GI50 [3]: > 100 µM | GI50 [5]: > 100 µM | GI50 [6]: > 100 µM | GI50 [7]: > 100 µM | GI50 [8, 10]: > 100 µM | GI50 [9]: > 100 µM

N=C(N)c1ccc2[nH]c(-c3ccc(N4CCN(c5ccnc6cc(Cl)ccc56)CC4)cc3)nc2c1 [Compound 8a, 2-(4-(4-(7-chloroquinolin-4-yl)piperazin-1-yl)phenyl)-1H-benzo[d]imidazole-5-carboxamidine dihydrochloride]
GI50 [1]: 37.7 ± 8.6 µM | GI50 [2]: 32.1 ± 3.8 µM | GI50 [3]: 36.3 ± 9.6 µM | GI50 [5]: > 100 µM | GI50 [6]: 20.7 ± 8.6 µM | GI50 [7]: 20.2 ± 6.1 µM | GI50 [8, 10]: 42.7 ± 10.8 µM | GI50 [9]: > 100 µM

O=c1[nH]cc(F)c(=O)[nH]1 [Compound 5-FU, 5-Fluorouracil, reference compound]
GI50 [1]: > 100 µM | GI50 [2]: > 50 µM | GI50 [3]: 8.2 ± 1.9 µM | GI50 [5]: 5.9 ± 0.7 µM | GI50 [6]: 30.2 ± 4.7 µM | GI50 [7]: > 100 µM | GI50 [8, 10]: 74 ± 3.1 µM | GI50 [9]: 76.3 ± 0.5 µM
